Results as given in patent US8299048B2, “Hexahydrocyclopentyl[f]indazole sulfonamides and derivatives thereof as selective glucocorticoid receptor modulators” (Merck Sharp & Dohme Corp., priority 2008, dated 2012).
Like-named read-outs stand apart in the source and are kept apart here.

Molecular target: T1, human GR (Homo sapiens, UniProt P04150)
T1 sequence (P04150 1-777): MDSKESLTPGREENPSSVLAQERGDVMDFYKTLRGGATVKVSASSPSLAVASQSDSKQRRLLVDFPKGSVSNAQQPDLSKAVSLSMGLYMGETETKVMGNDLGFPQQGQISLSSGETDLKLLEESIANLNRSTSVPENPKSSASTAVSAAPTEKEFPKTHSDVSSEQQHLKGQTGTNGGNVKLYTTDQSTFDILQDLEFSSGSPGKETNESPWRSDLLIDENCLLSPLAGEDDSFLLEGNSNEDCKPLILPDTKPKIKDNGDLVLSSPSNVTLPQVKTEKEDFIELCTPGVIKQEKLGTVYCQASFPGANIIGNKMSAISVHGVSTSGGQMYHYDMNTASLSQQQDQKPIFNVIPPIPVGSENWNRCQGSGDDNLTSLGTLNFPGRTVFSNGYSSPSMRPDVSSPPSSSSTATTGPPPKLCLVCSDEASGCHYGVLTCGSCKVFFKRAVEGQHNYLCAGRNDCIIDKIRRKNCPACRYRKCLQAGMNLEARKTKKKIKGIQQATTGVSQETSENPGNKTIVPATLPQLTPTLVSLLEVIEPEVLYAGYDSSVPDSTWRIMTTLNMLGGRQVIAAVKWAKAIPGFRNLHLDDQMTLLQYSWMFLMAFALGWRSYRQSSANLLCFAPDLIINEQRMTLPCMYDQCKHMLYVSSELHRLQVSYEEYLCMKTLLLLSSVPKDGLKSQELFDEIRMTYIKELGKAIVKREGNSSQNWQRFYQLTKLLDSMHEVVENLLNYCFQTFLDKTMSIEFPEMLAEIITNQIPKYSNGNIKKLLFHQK
Assay: Transrepression Assay (GITAR), TNFα-β-lactamase reporter in U937 cells
Type: cell-based
Set-up: U937 cells contain an endogenous glucocorticoid receptor (GR); endogenous in cells; host or cells: U937 cells stably transfected with the TNF-alpha promoter/beta-lactamase reporter
Conditions: for GITAR > GRAMM % SEP: GITAR Emax minus GRAMMER Emax; for EC50: U937 cells, inflection point, read-out: Transrepression U937 Cells GITAR IP
Description: This assay assesses the ability of test compounds to control transcription from the TNFα-β-lactamase reporter gene in U937 cells, a human myelomonocytic leukemia cell line that naturally expresses the human GR. The assay measures compound dependent-repression of the TNFa promoter linked to a reporter gene.
The human U937 cells that had been stablely transfected with the TNF-α promoter driving β-lactamase are used for this assay. U937 cells contain an endogenous glucocorticoid receptor (GR). Cells are maintained in RPMI 1640 Growth medium (Gibco Cat#11875-093) containing 25 mM HEPES, 10% FBS, 2 mM L-Glutamine, 1 mM Sodium pyruvate, 25 μg/ml Gentamicin (Gibco Cat#15710-064), 1:1000 2-Mercaptoethanol (Gibco Cat#21985-023) and 0.8 mg/ml G418 (Gibco Cat#10131-027). The density of the cells in the flask needs to be about 1×10^6−3×10^6/ml at the time of harvest. Usually, the cells are split to 1.2˜1.4×10^5/ml (1:10) 3 days prior to the assay. 50,000 cells/well are plated in 96 well black-walled plates the day of assay. Test compounds are added 10 μL/well, and cells are incubated at 37° C. for 30˜45 min. For assaying compounds, first dilute 1:10 in DMSO to make 1 mM, then further dilute 1:100 in medium to make 10× stock prior to adding to the cells. Add 50 ng/mlPMA (Sigma, cat# P8139) 10 μL/well to a final concentration 5 ng/ml, and 1 μg/ml LPS (Sigma, cat# L4130) 10 μL/well to a final concentration 100 ng/ml. Incubate cells at 37° C. overnight for ˜18 hr. PMA is stored frozen as 100 μg/ml stock in DMSO. Dilute 1:10 in DMSO for a working stock of 10 μg/ml and store at −20 C. For assaying, dilute the 10 μg/ml working stock 1:200 in medium to make a 10× solution (50 ng/ml). Store frozen LPS at 1 mg/ml in PBS, dilute 1:1000 in medium to make 10× (1 μg/ml) for the assay. Add 6× loading buffer (CCF2-AM) 20 μL/well, and incubate at room temperature for 70˜90 min. […] The activity repressed by 100 nM dexamethasone alone is set as 100% activity.

[1] = U-937, U937 cells, maximum activity, read-out: Transrepression U937 Cells GITAR Emax
[2] = U-937, activity repressed by 100 nM dexamethasone alone set as 100%, read-out: maximal activity in the transrepression (GITAR) assay

GITAR > GRAMM % SEP [%]	EC50 [µM]	Emax [1] [%]	Emax [2] [%]	Compound
35.0	0.119	83.1	> 5	Cc1noc(C)c1S(=O)(=O)N(C[C@H]1CCC2=Cc3c(cnn3-c3ccc(F)cc3)C[C@@]21C)C[C@@H](C)O [Example 168, N-{[(4αR,5S)-1-(4-fluorophenyl)-4α-methyl-1,4,4α,5,6,7-hexahydrocyclopenta[f]indazol-5-yl]methyl}-N-[(2R)-2-hydroxypropyl]-3,5-dimethylisoxazole-4-sulfonamide]
1.8	0.308	93.3	> 5	CC(CN(C[C@H]1CCC2=Cc3c(cnn3-c3ccc(F)cc3)C[C@@]21C)S(=O)(=O)CC(F)(F)F)c1cccnc1 (stereo partly drawn) [Example 146, 2,2,2-trifluoro-N-{[(4αR,5S)-1-(4-fluorophenyl)-4α-methyl-1,4,4α,5,6,7-hexahydrocyclopenta[f]indazol-5-yl]methyl}-N-(2-pyridin-3-ylpropyl)ethanesulfonamide]
18.2	0.148	98.5	> 5	C[C@@H](CN(C[C@H]1CCC2=Cc3c(cnn3-c3ccc(F)cc3)C[C@@]21C)S(=O)(=O)CC(F)(F)F)OS(=O)(=O)CC(F)(F)F [Example 114, (1S)-2-{{[(4αR,5S)-1-(4-fluorophenyl)-4α-methyl-1,4,4α,5,6,7-hexahydrocyclopenta[f]indazol-5-yl]methyl}[(2,2,2-trifluoroethyl)sulfonyl]amino}-1-methylethyl 2,2,2-trifluoroethanesulfonate]
32.2	1.09	61.3	> 5	CCCS(=O)(=O)N(CC(O)C(F)F)C[C@H]1CCC2=Cc3c(cnn3-c3ccc(F)cc3)C[C@@]21C (stereo partly drawn) [Example 155, N-(3,3-difluoro-2-hydroxypropyl)-N-{[(4αR,5S)-1-(4-fluorophenyl)-4α-methyl-1,4,4α,5,6,7-hexahydrocyclopenta[f]indazol-5-yl]methyl}propane-1-sulfonamide]
2.2	0.049	85.9	> 5	COCCN(C[C@H]1CCC2=Cc3c(cnn3-c3ccc(F)cc3)C[C@@]21C)S(=O)(=O)CC(F)(F)F [Example 97, 2,2,2-trifluoro-N-{[(4αR,5S)-1-(4-fluorophenyl)-4α-methyl-1,4,4α,5,6,7-hexahydrocyclopenta[f]indazol-5-yl]methyl}-N-(2-methoxyethyl)ethanesulfonamide]
5.6	0.433	83.7	> 5	C[C@]12Cc3cnn(-c4ccccc4)c3C=C1CC[C@@H]2CN(CCc1ccccn1)S(=O)(=O)CC(F)(F)F [Example 138, 2,2,2-trifluoro-N-{[(4αR,5S)-4α-methyl-1-phenyl-1,4,4α,5,6,7-hexahydrocyclopenta[f]indazol-5-yl]methyl}-N-(2-pyridin-2-ylethyl)ethanesulfonamide]
8.2	0.0951	86.5	> 5	CCCCS(=O)(=O)N(CCc1ccccc1F)C[C@H]1CCC2=Cc3c(cnn3-c3ccc(F)cc3)C[C@@]21C [Example 102, N-[2-(2-fluorophenyl)ethyl]-N-{[(4αR,5S)-1-(4-fluorophenyl)-4α-methyl-1,4,4α,5,6,7-hexahydrocyclopenta[f]indazol-5-yl]methyl}butane-1-sulfonamide]
34.4	0.465	46.6	> 5	C[C@]12Cc3cnn(-c4ccc(F)cc4)c3C=C1CC[C@@H]2CN(CC1CC1)S(=O)(=O)c1ccc(-c2ccccc2)cc1 [Example 10, N-(cyclopropylmethyl)-N-{[(4αR,5S)-1-(4-fluorophenyl)-4α-methyl-1,4,4α,5,6,7-hexahydrocyclopenta[f]indazol-5-yl]methyl}biphenyl-4-sulfonamide]
13.2	0.0643	89.9	> 5	Cn1cc(S(=O)(=O)N(CCc2ccccc2F)C[C@H]2CCC3=Cc4c(cnn4-c4ccc(F)cc4)C[C@@]32C)c(C(F)(F)F)n1 [Example 98, N-[2-(2-fluorophenyl)ethyl]-N-{[(4αR,5S)-1-(4-fluorophenyl)-4α-methyl-1,4,4α,5,6,7-hexahydrocyclopenta[f]indazol-5-yl]methyl}-1-methyl-3-(trifluoromethyl)-1H-pyrazole-4-sulfonamide]
13.6	0.229	79.7	> 5	C[C@]12Cc3cnn(-c4ccc(F)cc4)c3C=C1CC[C@@H]2CN(CCc1ccc(O)cc1)S(=O)(=O)CC(F)(F)F [Example 130, 2,2,2-trifluoro-N-{[(4αR,5S)-1-(4-fluorophenyl)-4α-methyl-1,4,4α,5,6,7-hexahydrocyclopenta[f]indazol-5-yl]methyl}-N-[2-(4-hydroxyphenyl)ethyl]ethanesulfonamide]
11.9	0.623	79.1	> 5	C[C@]12Cc3cnn(-c4ccc(F)cc4)c3C=C1CC[C@@H]2CN(CCc1ccncc1)S(=O)(=O)CC(F)(F)F [Example 129, 2,2,2-trifluoro-N-{[(4αR,5S)-1-(4-fluorophenyl)-4α-methyl-1,4,4α,5,6,7-hexahydrocyclopenta[f]indazol-5-yl]methyl}-N-(2-pyridin-4-ylethyl)ethanesulfonamide]
12.4	0.424	17.4	> 5	CN1CCOc2cc(S(=O)(=O)N(CC3CC3)C[C@H]3CCC4=Cc5c(cnn5-c5ccc(F)cc5)C[C@@]43C)ccc21 [Example 8, N-(cyclopropylmethyl)-N-{[(4αR,5S)-1-(4-fluorophenyl)-4α-methyl-1,4,4α,5,6,7-hexahydrocyclopenta[f]indazol-5-yl]methyl}-4-methyl-3,4-dihydro-2H-1,4-benzoxazine-7-sulfonamide]
30.8	0.417	39.7	> 5	C[C@]12Cc3cnn(-c4ccc(F)cc4)c3C=C1CC[C@@H]2CN(CCc1ccccc1O)S(=O)(=O)Cc1cccc(C(F)(F)F)c1 [Example 122, N-{[(4αR,5S)-1-(4-fluorophenyl)-4α-methyl-1,4,4α,5,6,7-hexahydrocyclopenta[f]indazol-5-yl]methyl}-N-[2-(2-hydroxyphenyl)ethyl]-1-[3-(trifluoromethyl)phenyl]methanesulfonamide]
33.3	0.196	93.5	> 5	C[C@]12Cc3cnn(-c4ccc(F)cc4)c3C=C1CC[C@@H]2CN(CC(OS(=O)(=O)CC(F)(F)F)c1ccccn1)S(=O)(=O)CC(F)(F)F (stereo partly drawn) [Example 145, 2-{{[(4αR,5S)-1-(4-fluorophenyl)-4α-methyl-1,4,4α,5,6,7-hexahydrocyclopenta[f]indazol-5-yl]methyl}[(2,2,2-trifluoroethyl)sulfonyl]amino}-1-pyridin-2-ylethyl 2,2,2-trifluoroethanesulfonate]
